Results from the NIST ThermoML archive (doi:10.1021/je200793z).

What was measured:
[1] = xn = mol fraction of the nth substance listed

CC(C)CCO [3-methylbutan-1-ol]
Settings	surface tension liquid-gas [mN/m]
293.15 K	24.5
298.15 K	24.15
303.15 K	23.8
308.15 K	23.36
313.15 K	22.96
318.15 K	22.57
323.15 K	22.17

CCO [ethanol]
Settings	surface tension liquid-gas [mN/m]
293.15 K	22.31
298.15 K	21.82
303.15 K	21.41
308.15 K	21.04
313.15 K	20.62
318.15 K	20.22
323.15 K	19.82

CC(C)CCO [3-methylbutan-1-ol] + CCO
surface tension liquid-gas [mN/m], [1]
Settings	293.15 K	298.15 K	303.15 K	308.15 K	313.15 K	318.15 K	323.15 K
x1 = 0.0268	22.56	22.09	21.7	21.35	20.95	20.56	20.17
x1 = 0.0549	22.78	22.32	21.94	21.59	21.19	20.81	20.44
x1 = 0.0845	22.98	22.54	22.17	21.81	21.41	21.04	20.67
x1 = 0.1156	23.17	22.73	22.36	22.01	21.62	21.24	20.87
x1 = 0.1484	23.33	22.9	22.53	22.17	21.78	21.41	21.04
x1 = 0.183	23.49	23.05	22.68	22.32	21.92	21.55	21.17
x1 = 0.2584	23.75	23.32	22.95	22.58	22.18	21.8	21.42
x1 = 0.3433	23.96	23.54	23.17	22.79	22.39	22.01	21.63
x1 = 0.4395	24.13	23.72	23.36	22.97	22.57	22.19	21.81
x1 = 0.5495	24.25	23.85	23.49	23.1	22.7	22.33	21.95
x1 = 0.6765	24.34	23.96	23.61	23.21	22.82	22.44	22.06
x1 = 0.8247	24.41	24.05	23.71	23.29	22.89	22.51	22.12
x1 = 1	24.5	24.15	23.8	23.36	22.96	22.57	22.17

CCO [ethanol] + CCC(C)CO
[1], x2 = 0
Settings	surface tension liquid-gas [mN/m]
293.15 K	22.31
298.15 K	21.82
303.15 K	21.41
308.15 K	21.04
313.15 K	20.62
318.15 K	20.22
323.15 K	19.82

CCO [ethanol] + CC(C)CCO
[1], x2 = 0
Settings	surface tension liquid-gas [mN/m]
293.15 K	22.31
298.15 K	21.82
303.15 K	21.41
308.15 K	21.04
313.15 K	20.62
318.15 K	20.22
323.15 K	19.82

CCO [ethanol] + CCC(C)(C)O
[1], x2 = 0
Settings	surface tension liquid-gas [mN/m]
293.15 K	22.31
298.15 K	21.82
303.15 K	21.41
308.15 K	21.04
313.15 K	20.62
318.15 K	20.22
323.15 K	19.82

CCC(C)(C)O [2-methylbutan-2-ol]
Settings	surface tension liquid-gas [mN/m]
293.15 K	24.04
298.15 K	23.61
303.15 K	23.14
308.15 K	22.69
313.15 K	22.3
318.15 K	21.86
323.15 K	21.44
